In PubChem BioAssay AID206 (DTP/NCI, 2004):
Records with an inconclusive call do not appear.

Test system: nude mice, HT29 intrarenal xenograft, tumor weight T/C
Assay: NCI In Vivo Anticancer Drug Screen. Data for tumor model HT29;CX-1 Human Adenocarcinoma (MER+) (intrarenal inoculation) in NU/NU Swiss (nude) mice
Details: endpoint: mean tumor weight change, higher = larger tumour
How it was run: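 T/C = treated-group value ÷ vehicle-group value, using tumor size or survival.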

[1] = dose: 150.0 mg/kg/injection, schedule: Q04DX004 (sc), vehicle: Klucel (hydroxypropylcellulose) (HPC)
[2] = dose: 300.0 mg/kg/injection, schedule: Q04DX004 (sc), vehicle: Klucel (hydroxypropylcellulose) (HPC)
[3] = dose: 600.0 mg/kg/injection, schedule: Q04DX004 (sc), vehicle: Klucel (hydroxypropylcellulose) (HPC)
[4] = dose: 1200.0 mg/kg/injection, schedule: Q04DX004 (sc), vehicle: Klucel (hydroxypropylcellulose) (HPC)
[5] = dose: 75.0 mg/kg/injection, schedule: Q04DX004 (sc), vehicle: Klucel (hydroxypropylcellulose) (HPC)
[6] = dose: 150.0 mg/kg/injection, schedule: Q04DX004 (sc), vehicle: saline with Tween-80
[7] = dose: 300.0 mg/kg/injection, schedule: Q04DX004 (sc), vehicle: saline with Tween-80
[8] = dose: 600.0 mg/kg/injection, schedule: Q04DX004 (sc), vehicle: saline with Tween-80
[9] = dose: 1200.0 mg/kg/injection, schedule: Q04DX004 (sc), vehicle: saline with Tween-80
[10] = dose: 25.0 mg/kg/injection, schedule: Q01DX010 (sc), vehicle: saline
[11] = dose: 2400.0 mg/kg/injection, schedule: Q04DX004 (sc), vehicle: Klucel (hydroxypropylcellulose) (HPC)
[12] = dose: 150.0 mg/kg/injection, schedule: Q04DX004 (sc), vehicle: saline
[13] = dose: 600.0 mg/kg/injection, schedule: Q04DX004 (sc), vehicle: saline
[14] = dose: 1200.0 mg/kg/injection, schedule: Q04DX004 (sc), vehicle: saline
[15] = dose: 37.5 mg/kg/injection, schedule: Q04DX004 (sc), vehicle: saline with Tween-80
[16] = dose: 2.0 mg/kg/injection, schedule: Q04DX004 (sc), vehicle: saline
[17] = dose: 75.0 mg/kg/injection, schedule: Q04DX004 (sc), vehicle: saline with Tween-80
[18] = dose: 50.0 mg/kg/injection, schedule: Q04DX004 (sc), vehicle: saline with Tween-80
[19] = dose: 100.0 mg/kg/injection, schedule: Q04DX004 (sc), vehicle: saline with Tween-80
[20] = dose: 200.0 mg/kg/injection, schedule: Q04DX004 (sc), vehicle: saline with Tween-80

In the case of `[O-][n+]1c(CN2CCCCC2)nc2cccc3c2c1-c1ccccc1-3`, the T/C [1] is reported as 274 % of control, the T/C [2] is reported as 150 % of control and the T/C [3] is reported as 239 % of control. The T/C [4] was 303 % of control.

In the case of `CC(C)(C)c1ccc(CN2CCN(C(c3ccccc3)c3ccc(Cl)cc3)CC2)cc1` (stereo unspecified), the T/C [5] is reported as 78 % of control, the T/C [1] is reported as 74 % of control and the T/C [2] is reported as 88 % of control. The T/C [3] was 93 % of control.

With `CCCCCC#CC1OC12CCCCC2` (stereo unspecified) the T/C [6] was 74 % of control, the T/C [7] was 62 % of control and the T/C [8] was 77 % of control. The T/C [9] was 100 % of control.

In the case of `C[N+](C)(C)c1ncnc2c1ncn2C1CCCO1` (stereo unspecified), the T/C (dose: 6.25 mg/kg/injection, schedule: Q01DX010 (sc), vehicle: saline) is reported as 80 % of control, the T/C (dose: 12.5 mg/kg/injection, schedule: Q01DX010 (sc), vehicle: saline) is reported as 120 % of control and the T/C [10] is reported as 90 % of control.

`S=C(Nc1ccc(Cl)c(Cl)c1)N1c2ccccc2-n2cccc2C1c1cccnc1` (stereo unspecified) was tested, and the T/C (dose: 200.0 mg/kg/injection, schedule: Q04DX004 (sc), vehicle: Klucel (hydroxypropylcellulose) (HPC)) was 52 % of control, the T/C (dose: 400.0 mg/kg/injection, schedule: Q04DX004 (sc), vehicle: Klucel (hydroxypropylcellulose) (HPC)) was 114 % of control and the T/C (dose: 800.0 mg/kg/injection, schedule: Q04DX004 (sc), vehicle: Klucel (hydroxypropylcellulose) (HPC)) was 83 % of control.

`Cc1ccc(C2NC(=O)c3ccccc3N2)s1` (stereo unspecified) was tested, and the T/C [3] was 101 % of control, the T/C [4] was 95 % of control and the T/C [11] was 96 % of control. For the same compound, the T/C (dose: 4800.0 mg/kg/injection, schedule: Q04DX004 (sc), vehicle: Klucel (hydroxypropylcellulose) (HPC)) was 92 % of control.

`OCC12COCN1COC2` was tested, and the T/C [12] was 88 % of control, the T/C (dose: 300.0 mg/kg/injection, schedule: Q04DX004 (sc), vehicle: saline) was 76 % of control and the T/C [13] was 94 % of control. For the same compound, the T/C [14] was 90 % of control.

For `O=c1n(CC2CO2)c(=O)n(CC2CO2)c(=O)n1CC1CO1` (stereo unspecified), the T/C (dose: 18.75 mg/kg/injection, schedule: Q04DX004 (sc), vehicle: saline with Tween-80) was 42 % of control, the T/C [10] was 76 % of control and the T/C [15] was 33 % of control. For the same compound, the T/C (dose: 50.0 mg/kg/injection, schedule: Q01DX010 (sc), vehicle: saline) was 29 % of control.

With `O=C1c2c(O)ccc(O)c2C(=O)c2c(NCCNCCO)ccc(NCCNCCO)c21` the T/C (dose: 0.13 mg/kg/injection, schedule: Q01DX010 (sc), vehicle: acid diluted with saline) was 89 % of control, the T/C (dose: 0.25 mg/kg/injection, schedule: Q01DX010 (sc), vehicle: acid diluted with saline) was 75 % of control and the T/C (dose: 2.5 mg/kg/injection, schedule: Q04DX004 (sc), vehicle: water) was 73 % of control. The T/C (dose: 5.0 mg/kg/injection, schedule: Q04DX004 (sc), vehicle: water) was 104 % of control and the T/C (dose: 10.0 mg/kg/injection, schedule: Q04DX004 (sc), vehicle: water) was 76 % of control.

For `C=C[Si]12OCCN(CCO1)CCO2`, the T/C [2] was 92 % of control, the T/C [3] was 93 % of control and the T/C [4] was 110 % of control. The T/C [11] was 71 % of control.

With `C=C1C(=O)C23[C@H](O)C1CC[C@H]2[C@]12COC3(O)[C@@H](O)[C@@H]1C(C)(C)CC[C@@H]2O` the T/C (dose: 25.0 mg/kg/injection, schedule: Q04DX004 (sc), vehicle: Klucel (hydroxypropylcellulose) (HPC)) was 80 % of control.

For `CC(=O)CC(=O)CCC(=O)O`, the T/C [12] was 111 % of control, the T/C [13] was 113 % of control and the T/C [14] was 104 % of control.

For `CC(C)(C)C1CCCCC1`, the T/C [2] was 94 % of control, the T/C [3] was 97 % of control and the T/C [4] was 56 % of control. For the same compound, the T/C [11] was 55 % of control.

`COC1=C2C[C@@H](C)C[C@@H](OC)[C@@H](O)[C@H](C)/C=C(\C)[C@@H](OC(N)=O)[C@H](OC)/C=C\C=C(/C)C(=O)NC(=CC1=O)C2=O` was tested, and the T/C [16] was 110 % of control, the T/C (dose: 4.0 mg/kg/injection, schedule: Q04DX004 (sc), vehicle: saline) was 113 % of control and the T/C (dose: 8.0 mg/kg/injection, schedule: Q04DX004 (sc), vehicle: saline) was 54 % of control. For the same compound, the T/C (dose: 16.0 mg/kg/injection, schedule: Q04DX004 (sc), vehicle: saline) was 59 % of control.

In the case of `C=CCNc1nc2c(s1)CCc1cc(OC)c(OC)cc1-2`, the T/C [6] is reported as 38 % of control, the T/C [7] is reported as 114 % of control and the T/C [8] is reported as 113 % of control. For the same compound, the T/C [9] was 80 % of control.

With `CN=C(N)N/N=C(\C)c1ccc2oc3ccc(/C(C)=N/NC(N)=NC)cc3c2c1` the T/C [17] was 156 % of control, the T/C [6] was 63 % of control and the T/C [7] was 98 % of control.

With `COC(=O)C(N)Cc1ccc(O)c(O)c1` (stereo unspecified) the T/C (dose: 225.0 mg/kg/injection, schedule: Q04DX004 (sc), vehicle: saline) was 74 % of control, the T/C (dose: 450.0 mg/kg/injection, schedule: Q04DX004 (sc), vehicle: saline) was 104 % of control and the T/C (dose: 900.0 mg/kg/injection, schedule: Q04DX004 (sc), vehicle: saline) was 77 % of control. For the same compound, the T/C (dose: 1800.0 mg/kg/injection, schedule: Q04DX004 (sc), vehicle: saline) was 55 % of control.

For `BrC[P+](CBr)(CBr)CBr`, the T/C [18] was 86 % of control, the T/C [19] was 57 % of control and the T/C [20] was 82 % of control. The T/C (dose: 400.0 mg/kg/injection, schedule: Q04DX004 (sc), vehicle: saline with Tween-80) was 103 % of control.

In the case of `CN1C(=O)CC2(CCN(CCCC(=O)c3ccc(F)cc3)CC2)C1=O`, the T/C (dose: 75.0 mg/kg/injection, schedule: Q04DX004 (sc), vehicle: suspension in saline) is reported as 120 % of control.

`C=C1C(=O)OC2CC(C)C3C4OC4C(O)C3(C)C(O)C12` (stereo unspecified) was tested, and the T/C [18] was 99 % of control, the T/C [19] was 121 % of control and the T/C [20] was 107 % of control.

In the case of `C1=CCOCOC1`, the T/C [15] is reported as 69 % of control, the T/C [17] is reported as 70 % of control and the T/C [6] is reported as 68 % of control. For the same compound, the T/C [7] was 72 % of control.

With `Cc1nn(CCO)c(C)c1N=[N+]([O-])c1c(C)nn(CCO)c1C` the T/C [5] was 68 % of control, the T/C [1] was 70 % of control and the T/C [2] was 44 % of control. For the same compound, the T/C [3] was 53 % of control and the T/C [4] was 102 % of control.

For `O=NN(CCCl)C(=O)NC1[C@H](O)CCC[C@@H]1O` (stereo partly specified), the T/C (dose: 10.0 mg/kg/injection, schedule: Q04DX004 (sc), vehicle: saline) was 90 % of control.

For `Cc1ccccc1SSc1ccccc1C`, the T/C (dose: 100.0 mg/kg/injection, schedule: Q01DX010 (sc), vehicle: saline with Tween-80) was 62 % of control and the T/C (dose: 200.0 mg/kg/injection, schedule: Q01DX010 (sc), vehicle: saline with Tween-80) was 68 % of control.

For `CO[C@H](C(=O)[C@@H](O)[C@@H](C)O)[C@@H]1Cc2cc3cc(OC4CC(OC5CC(O)C(O)C(C)O5)C(O)C(C)O4)c(C)c(O)c3c(O)c2C(=O)[C@H]1OC1CC(OC2CC(OC3CC(C)(O)C(O)C(C)O3)C(O)C(C)O2)C(O)C(C)O1` (stereo partly specified), the T/C (dose: 0.25 mg/kg/injection, schedule: Q04DX004 (sc), vehicle: saline) was 87 % of control, the T/C (dose: 0.5 mg/kg/injection, schedule: Q04DX004 (sc), vehicle: saline) was 53 % of control and the T/C (dose: 1.0 mg/kg/injection, schedule: Q04DX004 (sc), vehicle: saline) was 54 % of control. For the same compound, the T/C (dose: 2.0 mg/kg/injection, schedule: Q01DX010 (sc), vehicle: saline) was -80 % of control and the T/C [16] was 61 % of control.

For `C/C=C/c1cc2n(c1)C(=O)c1cc(OC3OC(C)C(NC)C(C)(O)C3O)c(C)c(O)c1NC2O` (stereo unspecified), the T/C (dose: 12.5 micrograms/kg/injection, schedule: Q04DX004 (sc), vehicle: saline) was 69 % of control, the T/C (dose: 25.0 micrograms/kg/injection, schedule: Q04DX004 (sc), vehicle: saline) was 101 % of control and the T/C (dose: 50.0 micrograms/kg/injection, schedule: Q04DX004 (sc), vehicle: saline) was 83 % of control. For the same compound, the T/C (dose: 100.0 micrograms/kg/injection, schedule: Q04DX004 (sc), vehicle: saline) was 94 % of control.
